Test results as given in the CheMixHub viscosity set.

Assay: xn = mol fraction of the nth substance listed

CC(O)C(C)O (stereo unspecified) + C[N+](C)(C)CCO.[Cl-]
viscosity [mPa·s], 101.3 kPa
Settings | 303.15 K | 308.15 K | 313.15 K | 318.15 K | 323.15 K
x2 = 0.2 | 71.79 | 53.5 | 40.72 | 31.73 | 25.22
x2 = 0.25 | 84.88 | 63.93 | 48.73 | 38.16 | 30.43

CCCCCCCCN + CCN(CC)CC
viscosity [mPa·s], 101.33 kPa
Settings | x2 = 0.1056 | x2 = 0.2038 | x2 = 0.4151 | x2 = 0.4978 | x2 = 0.6055 | x2 = 0.8063 | x2 = 0.9007
303.15 K | 1.021 | 0.9064 | 0.7044 | 0.6396 | 0.5641 | 0.4488 | 0.4031
313.15 K | 0.8659 | 0.7719 | 0.6062 | 0.5533 | 0.4916 | 0.3975 | 0.3611

OCCOCCO + C[N+](C)(C)CCO.[Cl-]
viscosity [mPa·s], 101 kPa
Settings | 293.15 K | 298.15 K | 303.15 K | 313.15 K | 323.15 K
x1 = 0.667 | 52.49 | – | 50.39 | 35.69 | 25.79
x2 = 0.25 | – | 55.1 | – | – | –

CCCCCCCCCCCCO + CCCCCCCCCCO
viscosity [mPa·s], 101.8 kPa
Settings | x2 = 0.1151 | x2 = 0.3347 | x2 = 0.5407 | x2 = 0.7346 | x2 = 0.9162
298.15 K | 16.35 | 15.13 | 14.02 | 13.03 | 12.15
308.15 K | 11.08 | 10.31 | 9.627 | 8.957 | 8.384
318.15 K | 7.752 | 7.245 | 6.775 | 6.357 | 5.973

O=C(O)CCC(=O)O + CCCO
101 kPa
Settings | viscosity [mPa·s]
308.15 K, x1 = 0.0284 | 1.872
313.15 K, x1 = 0.0284 | 1.657
313.15 K, x1 = 0.03 | 1.657
313.15 K, x1 = 0.037 | 1.72
313.15 K, x1 = 0.043 | 1.777
313.15 K, x1 = 0.0435 | 1.888
313.15 K, x1 = 0.048 | 1.888
318.15 K, x1 = 0.0284 | 1.492
318.15 K, x1 = 0.0435 | 1.635
323.15 K, x1 = 0.0284 | 1.326
323.15 K, x1 = 0.0435 | 1.462

[Cl-].[Cl-].[Cl-].[Cl-].[Ge+4] + COc1ccccc1
viscosity [mPa·s], 101 kPa
Settings | x2 = 0.2185 | x2 = 0.3554 | x2 = 0.4923 | x2 = 0.6922 | x2 = 0.8481
293.15 K | 0.65 | 0.688 | 0.734 | 0.836 | 0.963
303.15 K | 0.591 | 0.621 | 0.654 | 0.732 | 0.836
313.15 K | 0.535 | 0.555 | 0.598 | 0.654 | 0.731

COC(=O)OCC(F)(F)F + CC1COC(=O)O1
298.15 K, 100 kPa
Settings | viscosity [mPa·s]
x2 = 0.0999 | 1.13
x2 = 0.2012 | 1.26
x2 = 0.3 | 1.38
x2 = 0.3991 | 1.51
x2 = 0.5012 | 1.66
x2 = 0.6016 | 1.82
x2 = 0.699 | 2
x2 = 0.7994 | 2.18
x2 = 0.9002 | 2.36

CC(C)CCCC(C)CCCC(C)CCCCC(C)CCCC(C)CCCC(C)C (stereo unspecified) + CCCCCCCCCCCCCCCC
298.15 K, 101.33 kPa
Settings | viscosity [mPa·s]
x2 = 0.045 | 26.05
x2 = 0.099 | 23.59
x2 = 0.1473 | 21.54
x2 = 0.2008 | 19.45
x2 = 0.2977 | 16.16
x2 = 0.4495 | 11.84
x2 = 0.6011 | 8.569
x2 = 0.8001 | 5.307

CC(C)CCCC(C)CCCC(C)CCCCC(C)CCCC(C)CCCC(C)C (stereo unspecified) + CC(C)O
viscosity [mPa·s], 101 kPa
Settings | x2 = 0.0621 | x2 = 0.218 | x2 = 0.4022
298.15 K | – | 19.65 | –
303.15 K | 18.75 | 15.45 | 13.05
